{"source": "paper PMC5266325", "about": "“The Rice Dynamin-Related Protein OsDRP1E Negatively Regulates Programmed Cell Death by Controlling the Release of Cytochrome c from Mitochondria” (PLoS Pathogens, 2017)", "key": {"[1]": {"target": "T1, OsDRP1E (MBP-OsDRP1E) (Oryza sativa, UniProt Q650Z3, E409V)", "T1 construct": "gene Os09g0572900; tag kept; native protein 70 kDa", "T1 sequence (Q650Z3 1-626 E409V)": "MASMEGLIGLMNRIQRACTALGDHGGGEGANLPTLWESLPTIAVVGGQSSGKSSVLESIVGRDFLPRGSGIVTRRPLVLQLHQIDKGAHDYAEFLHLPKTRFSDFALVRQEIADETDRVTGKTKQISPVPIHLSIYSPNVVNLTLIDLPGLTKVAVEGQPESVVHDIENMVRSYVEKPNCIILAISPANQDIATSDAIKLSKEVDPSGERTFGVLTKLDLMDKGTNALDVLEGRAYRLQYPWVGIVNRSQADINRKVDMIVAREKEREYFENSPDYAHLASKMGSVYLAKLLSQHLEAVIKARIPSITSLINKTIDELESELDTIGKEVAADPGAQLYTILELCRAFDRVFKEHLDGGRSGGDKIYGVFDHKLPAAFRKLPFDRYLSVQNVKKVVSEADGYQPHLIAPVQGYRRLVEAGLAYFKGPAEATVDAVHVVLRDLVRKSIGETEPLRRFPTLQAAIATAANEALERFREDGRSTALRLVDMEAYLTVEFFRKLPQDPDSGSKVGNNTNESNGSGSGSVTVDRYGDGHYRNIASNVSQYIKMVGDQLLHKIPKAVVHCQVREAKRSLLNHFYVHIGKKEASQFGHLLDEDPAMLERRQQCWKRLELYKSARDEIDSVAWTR", "assay": "colorimetric phosphate release GTPase assay", "type": "biochemical", "conditions": "MBP fusion; time course and 2, 5, 10 ug protein; lower activity than wild type"}, "[2]": {"target": "T2, OsDRP1E (MBP-OsDRP1E) (Oryza sativa, UniProt Q650Z3)", "T2 construct": "gene Os09g0572900; tag kept; native protein 70 kDa", "T2 sequence (Q650Z3 1-626)": "T1 sequence (Q650Z3 1-626 E409V) with V409E", "assay": "colorimetric phosphate release GTPase assay", "type": "biochemical", "conditions": "MBP fusion; time course and 2, 5, 10 ug protein"}}, "note": "Substitutions are numbered along the chain they refer to.", "data": [{"smiles": "Nc1nc2c(ncn2[C@@H]2O[C@H](COP(=O)(O)OP(=O)(O)OP(=O)(O)O)[C@@H](O)[C@H]2O)c(=O)[nH]1", "note": "[GTP]", "values": [{"measurement": "colorimetric phosphate release GTPase assay", "setting": "[1]", "value": "both MBP-OsDRP1E and MBP-E409V displayed catalytic activity towards the substrate GTP"}, {"measurement": "colorimetric phosphate release GTPase assay", "setting": "[2]", "value": "both MBP-OsDRP1E and MBP-E409V displayed catalytic activity towards the substrate GTP"}]}]}
